Experiments:
[1] = tested on: normotensive Sprague Dawley rats; assay: Blood pressure effects in normotensive rats following acute oral dose; type: in vivo, rat; conditions: for Peak ΔVMAP (mm Hg): sodium salt in Milli-Q water, vehicle-adjusted MAP, 10-minute bins; for Time at Peak: time of peak ΔVMAP
Procedure: Male, normotensive Sprague Dawley rats were purchased from Charles River Laboratories. These rats have indwelling femoral artery catheters installed. Animals were harnessed to a tether system and attached to pressure transducers to monitor cardiovascular (CV) parameters, specifically mean arterial pressure (MAP) and heart rate (HR). Animals were acclimated to the system overnight and baseline CV parameters collected. The conscious, freely moving rats were then administered a single oral dose of the Compound I-14 (doses generated from the sodium salt of Compound I-14) in Milli-Q water at 1, 3, 10 and 30 mg/kg. A blood sample was collected from each animal through the catheter line at pre-dose and 2 hours post-dose for compound concentration quantification. Hemodynamic measures were recorded for ten hours post-dose. Fifty-four male rats were used for these studies and they were ordered to be received at a body weight range of 250-275 grams. They were single housed under controlled conditions of temperature (21±1° C.), relative humidity (36±1%) and placed in a 12-hr light-dark cycle (lights on at 6:00 AM and off at 6:00 PM) room at SmartLabs vivarium (21 Erie Street, Cambridge, MA) under protocol MIL-110. Animals were allowed ad libitum access to chow (LabDiet Prolab Isopro RMH 3000, St. Louis, MO) and water. Two sets of studies were carried out. For the first set of studies Compound I-14 was formulated at 0.3 and 1.0 mg/ml in Milli-Q water and frozen at −20° C. For the second set of studies, the sodium salt of Compound I-14 was weighed at Cyclerion Therapeutics and reconstituted at SmartLabs to provide 0.1, 0.3, 1.0 and 3.0 mg/ml solutions of Compound I-14 in Milli-Q water. Formulations prepared were thawed less than 4 hours before dosing and stored at room temperature or were made less than 2 hours before dosing and stored at room temperature.
Studies were conducted over 6 separate sessions. Animals were initially used within 3 days of receipt and if catheters remained patent, reused once after 6-7 days of washout. No animals were used more than twice.
This study utilized ADInstruments LabChart (v8) to collect hemodynamic data from conscious, freely moving rats tethered to a blood pressure transducer (Harvard Apparatus cat #APT300). Following an overnight acclimation to the tether and pressure transducer, animals were dosed following a 1-hr baseline recording period. Animals were administered a single oral (P.O.) dose of the sodium salt form of Compound I-14 or vehicle at a dose volume of 10 mL/kg. Data collection was continued for 10 hours post-dose.
ADInstruments LabChart (v8) was used to monitor and export hemodynamic data. Blood pressure and heart rate were continuously monitored, and data were collected at 1000 data points per second then averaged into 10-minute bins for analysis. Change from baseline MAP (ABMAP) and HR (ABHR) were calculated using the pre-dose baseline averaged over the 1-hr period prior to dosing using Microsoft Excel for Microsoft 365. This 10-minute bin dataset was used to determine peak ΔVMAP, time peak ΔVMAP, peak ΔVHR and time of peak ΔVHR. The dataset was further consolidated into 1-hr bins for the MAP and HR figures and the analysis of ΔBMAP, ΔBMAP, and ΔBHR. The definitions of these terms/abbreviations are summarized below:
Statistical analyses were performed in Graphpad Prism (v8). Significance, as compared to vehicle-treated rats, for ΔBMAP and ΔBHR data was determined by 2-way repeated measures ANOVA followed by a Dunnett's multiple comparisons test, if there was a missing data point, a mixed-effect analysis was utilized. Vehicle-adjusted MAP (ΔVMAP) was calculated by subtracting ΔBMAP of the vehicle group from the ΔBMAP of each dose group at each timepoint. Vehicle-adjusted HR (ΔVHR) was calculated in a similar manner to ΔVMAP.
Significance of AOC data were determined by one-way ANOVA followed by a Dunnett's multiple comparisons test as compared to vehicle. […]

sGC enzyme = assay: cGMP GloSensor cell-based assay, 384-well format; parameters: species or system human; conditions: HEK293 GloSensor 40F cGMP cells, 10 μM DETA-NONOate; geometrical mean; I-20 and I-14: average of free acid and sodium salt; read-out: Glo EC50
Source text: Human embryonic kidney cells (HEK293) cells expressing GloSensor™ 40F cGMP (Part No: CS182801, Promega) were used to evaluate the activity of test compounds. The luminescent biosensors (engineered luciferase) that were incorporated into these cells detect cGMP formed by the compounds stimulating the sGC enzyme and emit luminescence.
cGMP GloSensor cells were maintained in Dulbecco's Modification of Eagle's Medium (DMEM) supplemented with fetal bovine serum (FBS, 10% final) and hygromycine (200 ug/ml). The day before assay, cells were plated in DMEM with 10% FBS in a 50 μL volume at a density of 1.5×10^4 cells/well in a poly-D-lysine coated 384-well flat white-bottom plate (Corning Cat No 35661). […] Test compounds and Diethylenetriamine NONOate (DETA-NONOate) was diluted to 3 mM (20×) in serum-free CO2 independent medium and serially diluted at 4× dilutions to create 5× dose curve from which 10 ul was added to the wells (x μM concentration for test compound solution and 10 μM concentration for DETA-NONOate solution; wherein x is one of the following final concentrations: 30 μM, 7.5 μM, 1.9 μM, 469 nM, 117 nM, 29.3 nM, 7.3 nM, 1.83 nM, 0.46 nM, 0.11 nM, 0.03 nM) For the kinetics studies, luminescense was measured right away for 0.2 sec per well with Envision (Perkin Elmer). […]
Concentration response data were analyzed using a 4-parameter fit (log (agonist) vs. response-variable slope). […]

For `Cc1cc(F)c(Cc2nc(-c3ncc(F)c(O)n3)cn3ccnc23)cc1F` [Compound I-14, 5-fluoro-2-(8-(2,5-difluoro-4-methylbenzyl)imidazo[1,2-a]pyrazin-6-yl)pyrimidin-4-ol], the “Peak ΔVMAP (mm Hg)” value ([1]; 1 mg/kg single oral dose) was −6.2 mm Hg, the “Peak ΔVMAP (mm Hg)” value ([1]; 3 mg/kg single oral dose) was −10.1 mm Hg and the “Peak ΔVMAP (mm Hg)” value ([1]; 10 mg/kg single oral dose) was −22.3 mm Hg. The “Peak ΔVMAP (mm Hg)” value ([1]; 30 mg/kg single oral dose) was −24.4 mm Hg, the “no effect dose on ΔBMAP” value ([1]; single oral dose, main effect analysis, simple effects analysis and AOC) was 1 mg/kg and the “Time at Peak” value ([1]; 1 mg/kg single oral dose) was 90 min. For the same molecule, the “Time at Peak” value ([1]; 3 mg/kg single oral dose) was 70 min, the “Time at Peak” value ([1]; 10 mg/kg single oral dose) was 30 min and the “Time at Peak” value ([1]; 30 mg/kg single oral dose) was 30 min. The EC50 (sGC enzyme) was no more than 100 nM.

From patent US20260151391A1, “TREATMENT OF MITOCHONDRIAL DISEASES WITH sGC STIMULATORS” (Tisento Therapeutics Inc., priority 2022, published 2026)
